{"source": "paper PMC3618516", "about": "“A Systematic Screen of FDA-Approved Drugs for Inhibitors of Biological Threat Agents” (PLoS ONE, 2013)", "key": {"EBOV [1]": {"system": "EBOV", "assay": "microbe, parasite or virus in culture", "assay_type": "cell-based, Ebola virus", "conditions": "for EC50: read-out: EC50, EBOV Replication; for EC90: read-out: EC90, EBOV Replication"}, "MARV": {"system": "MARV", "assay": "organism not typed", "assay_type": "cell-based, Marburg virus", "conditions": "for EC50: read-out: EC50, MARV Replication; for EC90: read-out: EC90, MARV Replication"}, "[2]": {"system": "EBOV GP-pseudotyped vesicular stomatitis virus", "assay": "microbe, parasite or virus in culture", "assay_type": "cell-based, Ebola virus", "conditions": "for EC50: read-out: EC50, EBOV Entry; for EC90: read-out: EC90, EBOV Entry; for inhibition at 10 µM / inhibition at 50 µM: HEK-293T, read-out: EBOV VPEN (% activity)"}, "[3]": {"system": "MARV GP-pseudotyped vesicular stomatitis virus", "assay": "microbe, parasite or virus in culture", "assay_type": "cell-based, Marburg virus", "conditions": "for EC50: read-out: EC50, MARV Entry; for EC90: read-out: EC90, MARV Entry; for inhibition at 10 µM / inhibition at 50 µM: HEK-293T, read-out: MASV VPEN (% activity)"}, "[4]": {"system": "LASV GP-pseudotyped vesicular stomatitis virus", "assay": "microbe, parasite or virus in culture", "assay_type": "cell-based, Lassa virus", "conditions": "for inhibition at 10 µM / inhibition at 50 µM: Vesicular stomatitis virus, HEK-293T, read-out: LASV VPEN (% activity)"}, "EBOV [5]": {"system": "EBOV", "assay_type": "cell-based, Ebola virus"}, "[6]": {"system": "EBOV virus-like particles", "assay_type": "cell-based, Ebola virus"}, "LASV": {"system": "LASV", "assay_type": "cell-based, Lassa virus"}, "[7]": {"conditions": "mouse, in vivo"}, "EBOV [8]": {"system": "EBOV", "assay_type": "cell-based, Ebola virus", "remark": "listed apart in the source"}, "in vivo": {"assay": "in vivo", "conditions": "male, Balb/c, mouse, ip, 90 mg/kg"}, "[9]": {"conditions": "humans; no reference given; cited from earlier work"}, "Coxiella burnetii": {"system": "Coxiella burnetii", "assay": "microbe, parasite or virus in culture", "assay_type": "cell-based", "conditions": "Vero, 168 h, read-out: Coxiella burnetii ICR (% protection)"}, "Francisella tularensis [10]": {"system": "Francisella tularensis", "assay": "microbe, parasite or virus in culture", "assay_type": "cell-based", "conditions": "J774.A1, 15 h, read-out: Fransciella tularensis ICR (% protection)"}, "Francisella tularensis [11]": {"system": "Francisella tularensis", "assay_type": "cell-based", "conditions": "50 µM"}, "Bacillus anthracis [12]": {"system": "Bacillus anthracis", "assay": "microbe, parasite or virus in culture", "assay_type": "cell-based", "conditions": "J774.A1, 15 h, read-out: Bacillus anthracis ICR (% protection)"}, "Bacillus anthracis [13]": {"system": "Bacillus anthracis", "parameters": "species or system Balb/c mice", "conditions": "mouse, in vivo"}, "Bacillus anthracis [14]": {"system": "Bacillus anthracis", "assay_type": "cell-based", "conditions": "50 µM"}}, "note": "Read-outs that look alike come from different tables or passages of the source.", "data": [{"smiles": "CCN(CC)CCCNc1ccnc2cc(Cl)ccc12", "note": "[AQ-13, Aminoquinoline-13]", "values": [{"measurement": "EC50", "setting": "EBOV [1]", "value": 21, "unit": "µM"}, {"measurement": "EC90", "setting": "EBOV [1]", "value": 39, "unit": "µM"}, {"measurement": "EC50", "setting": "MARV", "value": 42, "unit": "µM"}, {"measurement": "EC90", "setting": "MARV", "value": 48, "unit": "µM"}, {"measurement": "EC50", "setting": "[2]", "value": 4.3, "unit": "µM"}, {"measurement": "EC90", "setting": "[2]", "value": 20, "unit": "µM"}, {"measurement": "EC50", "setting": "[3]", "value": 4.3, "unit": "µM"}, {"measurement": "EC90", "setting": "[3]", "value": 16, "unit": "µM"}]}, {"smiles": "CCN(CC)Cc1cc(Nc2ccnc3cc(Cl)ccc23)ccc1O", "note": "[Amodiaquine]", "values": [{"measurement": "inhibition at 10 µM", "setting": "[4]", "value": 51, "unit": "%"}, {"measurement": "EC50", "setting": "EBOV [1]; Zaire ebolavirus", "value": 8.4, "unit": "µM"}, {"measurement": "EC90", "setting": "EBOV [1]; Zaire ebolavirus", "value": 17, "unit": "µM"}, {"measurement": "EC50", "setting": "MARV", "value": 8.3, "unit": "µM"}, {"measurement": "EC90", "setting": "MARV", "value": 16, "unit": "µM"}, {"measurement": "inhibition at 10 µM", "setting": "[2]; Zaire ebolavirus", "value": 99, "unit": "%"}, {"measurement": "EC50", "setting": "[2]; Zaire ebolavirus", "value": 2.6, "unit": "µM"}, {"measurement": "EC90", "setting": "[2]; Zaire ebolavirus", "value": 8, "unit": "µM"}, {"measurement": "inhibition at 10 µM", "setting": "[3]; Vesicular stomatitis virus", "value": 97, "unit": "%"}, {"measurement": "EC50", "setting": "[3]; Vesicular stomatitis virus", "value": 2.3, "unit": "µM"}, {"measurement": "EC90", "setting": "[3]; Vesicular stomatitis virus", "value": 6.5, "unit": "µM"}, {"measurement": "EBOV VR", "setting": "EBOV [5]; 10 µM", "value": "−"}, {"measurement": "effect on number of VLPs bound per cell", "setting": "[6]", "value": "no significant difference in binding"}, {"measurement": "LASV VR", "setting": "LASV; 10 µM", "value": "−"}]}, {"smiles": "CCN(CC)CCCC(C)Nc1ccnc2cc(Cl)ccc12", "note": "(stereo not drawn) [Chloroquine]", "values": [{"measurement": "inhibition at 50 µM", "setting": "[4]; 50 µM", "value": 34, "unit": "%"}, {"measurement": "Apparent Css", "setting": "[7]; male, Balb/c", "value": "~ 2.5 μg/ml"}, {"measurement": "apparent steady state concentration", "setting": "[7]; male, Balb/c", "value": "2,500 ng/mL"}, {"measurement": "time to apparent steady state after initiating treatment", "setting": "[7]; male, Balb/c", "value": "35 to 40", "unit": "h"}, {"measurement": "survival of mice on repeat dosing (tolerability)", "setting": "[7]", "value": "all mice survived"}, {"measurement": "EC50", "setting": "EBOV [1]; Zaire ebolavirus", "value": 16, "unit": "µM"}, {"measurement": "EC90", "setting": "EBOV [1]; Zaire ebolavirus", "value": 25, "unit": "µM"}, {"measurement": "EC50", "setting": "MARV", "value": 15, "unit": "µM"}, {"measurement": "EC90", "setting": "MARV", "value": 21, "unit": "µM"}, {"measurement": "inhibition at 50 µM", "setting": "[2]; Zaire ebolavirus", "value": 97, "unit": "%"}, {"measurement": "EC50", "setting": "[2]; Zaire ebolavirus", "value": 4.7, "unit": "µM"}, {"measurement": "EC90", "setting": "[2]; Zaire ebolavirus", "value": 43, "unit": "µM"}, {"measurement": "inhibition at 50 µM", "setting": "[3]; Vesicular stomatitis virus", "value": 97, "unit": "%"}, {"measurement": "EC50", "setting": "[3]; Vesicular stomatitis virus", "value": 5.5, "unit": "µM"}, {"measurement": "EC90", "setting": "[3]; Vesicular stomatitis virus", "value": 24, "unit": "µM"}, {"measurement": "EBOV VR", "setting": "EBOV [5]; 50 µM", "value": "+"}, {"measurement": "co-localization of virus particles with EEA1 / LAMP1", "setting": "EBOV [8]", "value": "most particles were now associated with EEA1 and very few particles were co-localized with LAMP1"}, {"measurement": "effect on number of VLPs bound per cell", "setting": "[6]", "value": "no significant difference in binding"}, {"measurement": "AUC", "setting": "in vivo", "value": 23000, "unit": "ng·h/mL"}, {"measurement": "Tmax", "setting": "in vivo", "value": 0.5, "unit": "h"}, {"measurement": "half-life", "setting": "in vivo", "value": "~7", "unit": "h"}, {"measurement": "Cmax", "setting": "in vivo; Cmax", "value": 5330, "unit": "ng/mL"}, {"measurement": "LASV VR", "setting": "LASV; 50 µM", "value": "−"}]}, {"smiles": "CC[C@H]1OC(=O)[C@H](C)[C@@H](O[C@H]2C[C@@](C)(OC)[C@@H](O)[C@H](C)O2)[C@H](C)[C@@H](O[C@@H]2O[C@H](C)C[C@H](N(C)C)[C@H]2O)[C@](C)(OC)C[C@@H](C)C(=O)[C@H](C)[C@@H](O)[C@]1(C)O", "note": "[Clarithromycin]", "values": [{"measurement": "bioavailable", "setting": "[9]", "value": "~50", "unit": "%"}]}, {"smiles": "CCC[C@@H]1C[C@@H](C(=O)N[C@@H]([C@H]2O[C@H](SC)[C@H](O)[C@@H](O)[C@H]2O)[C@H](C)Cl)N(C)C1", "note": "[Clindamycin]", "values": [{"measurement": "inhibition of growth at 50 µM", "setting": "Coxiella burnetii", "value": 0, "unit": "%"}, {"measurement": "inhibition at 50 µM", "setting": "Francisella tularensis [10]", "value": 83, "unit": "%"}]}, {"smiles": "CC[C@H]1OC(=O)[C@H](C)[C@@H](O[C@H]2C[C@@](C)(OC)[C@@H](O)[C@H](C)O2)[C@H](C)[C@@H](O[C@@H]2O[C@H](C)C[C@H](N(C)C)[C@H]2O)[C@](C)(O)C[C@@H](C)[C@@H]2N[C@@H](COCCOC)O[C@H]([C@H]2C)[C@]1(C)O", "note": "[Dirithromycin]", "values": [{"measurement": "LASV VPEN (% activity)", "setting": "[4]; 50 µM", "value": "no activity"}, {"measurement": "inhibition at 50 µM", "setting": "[4]; 50 µM", "value": -11, "unit": "%"}, {"measurement": "Fransciella tularensis Broth (% protection)", "setting": "Francisella tularensis [11]", "value": "+"}, {"measurement": "inhibition at 50 µM", "setting": "Bacillus anthracis [12]", "value": 92, "unit": "%"}, {"measurement": "inhibition of growth at 50 µM", "setting": "Coxiella burnetii", "value": 0, "unit": "%"}, {"measurement": "inhibition at 50 µM", "setting": "[2]; Zaire ebolavirus", "value": 99, "unit": "%"}, {"measurement": "inhibition at 50 µM", "setting": "[3]; Vesicular stomatitis virus", "value": 91, "unit": "%"}, {"measurement": "EBOV VR", "setting": "EBOV [5]; 50 µM", "value": "−"}, {"measurement": "protection of mice against BA infection (% of the mice)", "setting": "Bacillus anthracis [13]", "value": 20, "unit": "%"}, {"measurement": "Bacillus anthracis Broth (% protection)", "setting": "Bacillus anthracis [14]", "value": "+"}, {"measurement": "inhibition at 50 µM", "setting": "Francisella tularensis [10]", "value": 88, "unit": "%"}, {"measurement": "LASV VR", "setting": "LASV; 50 µM", "value": "−"}]}, {"smiles": "CC[C@H]1OC(=O)[C@H](C)[C@@H](O[C@H]2C[C@@](C)(OC)[C@@H](O)[C@H](C)O2)[C@H](C)[C@@H](O[C@@H]2O[C@H](C)C[C@H](N(C)C)[C@H]2O)[C@](C)(O)C[C@@H](C)C(=O)[C@H](C)[C@@H](O)[C@]1(C)O", "note": "[Erythromycin]", "values": [{"measurement": "inhibition at 10 µM", "setting": "[4]", "value": 60, "unit": "%"}, {"measurement": "Fransciella tularensis Broth (% protection)", "setting": "Francisella tularensis [11]", "value": "+"}, {"measurement": "inhibition at 50 µM", "setting": "Bacillus anthracis [12]", "value": 96, "unit": "%"}, {"measurement": "inhibition of growth at 50 µM", "setting": "Coxiella burnetii", "value": 100, "unit": "%"}, {"measurement": "inhibition at 10 µM", "setting": "[2]; Zaire ebolavirus", "value": 96, "unit": "%"}, {"measurement": "inhibition at 10 µM", "setting": "[3]; Vesicular stomatitis virus", "value": 98, "unit": "%"}, {"measurement": "EBOV VR", "setting": "EBOV [5]; 10 µM", "value": "−"}, {"measurement": "Bacillus anthracis Broth (% protection)", "setting": "Bacillus anthracis [14]", "value": "+"}, {"measurement": "inhibition at 50 µM", "setting": "Francisella tularensis [10]", "value": 104, "unit": "%"}, {"measurement": "LASV VR", "setting": "LASV; 10 µM", "value": "−"}]}, {"smiles": "CO/N=C1\\CN(c2nc3c(cc2F)c(=O)c(C(=O)O)cn3C2CC2)CC1CN", "note": "(stereo not drawn) [Gemifloxacin]", "values": [{"measurement": "Fransciella tularensis Broth (% protection)", "setting": "Francisella tularensis [11]", "value": "−"}, {"measurement": "inhibition at 50 µM", "setting": "Bacillus anthracis [12]", "value": 97, "unit": "%"}, {"measurement": "inhibition of growth at 50 µM", "setting": "Coxiella burnetii", "value": 0, "unit": "%"}, {"measurement": "Bacillus anthracis Broth (% protection)", "setting": "Bacillus anthracis [14]", "value": "−"}, {"measurement": "inhibition at 50 µM", "setting": "Francisella tularensis [10]", "value": 91, "unit": "%"}]}]}
